US11583494B2, “Pharmaceutical composition for nasal administration” (MEDILABO RFP, INC., priority 2017, dated 2023)

Experiments:
APP OSK mouse = experiment: Behavior test: space reference memory of mouse, Morris water maze; assay type: in vivo; settings: 1 month
Method: (§1) Male APP OSK mice (Tomiyama et al. J Neurosci. 2010; 30:4845-56) aged 11 months were prepared. APP OSK mice weigh about 30 g. The 60 APP OSK mice were classified into five groups A to E, each containing 12 mice. Separately, 12 wild-type mice (non-Tg littermate) of the same age in month were prepared.
(§2) Administration was performed without anesthesia using a rodent oral sonte for oral administration, a Pipetman (white tip) for nasal administration, and an injection syringe for subcutaneous administration.
The behavior test was performed by measuring space reference memory of mouse using a Morris water maze according to the method of Umeda et al. Brain 2016; 139:1568-86.

[1] = Impaired liver function: hepatic enzymes AST (GOT) and ALT (GPT) in serum; assay type: in vivo, mouse; settings: 1 month
Method: as §1, §2
Blood was sampled from mice after end of the behavior test, and serum was separated from the blood to prepare a serum sample. Hepatic enzymes AST (GOT) and ALT (GPT) in the serum sample were measured, and the degree of impaired liver function by rifampicin was compared.

Aβ oligomers = biological target: T1, Aβ oligomers (Homo sapiens, UniProt P05067, DEL693-693); assay type: in vivo, mouse
T1 construct: from tissue; host or cells: brain (hippocampus) of APP OSK transgenic mice
Method: as §1, §2
According to the procedure described in Umeda et al. Brain 2016; 139:1568-86, Aβ oligomers (Aβ oligomers are considered to cause phosphorylation of tau and reduction in synaptophysin), synaptophysin (marker protein of synapse), and phosphorylated tau were stained by immunohistological staining. For staining Aβ oligomers, 11A1 antibody (available from Immune-Biological laboratories Co., Ltd.) was used, and for staining synaptophysin, SVP-38 antibody (available from Sigma) was used. Mouse monoclonal PHF-1 antibody (anti p-Ser396/404-tau antibody, provided by Dr. Peter Davies, Albert Einstein College of Medicine) was used for staining phosphorylated tau. After staining, Aβ oligomers, synaptophysin, and phosphorylated tau were quantified by using NIH image-J.

Aβ = biological target: T2, Aβ (Homo sapiens, UniProt P05067); experiment: Formation of oligomers in vitro, Aβ; assay type: biochemical
T2 construct: Rifampicins have the action of suppressing formation of oligomers of amyloid β, tau, and α synuclein

tau = experiment: Formation of oligomers in vitro, tau; assay type: biochemical
α synuclein = α synuclein (Homo sapiens, UniProt P37840); experiment: Formation of oligomers in vitro, α synuclein; assay type: biochemical
AD model mouse = experiment: Oral administration to AD model mouse in which Aβ accumulates; assay type: in vivo
FTD model mouse = experiment: Oral administration to FTD model mouse in which tau accumulates; assay type: in vivo

CO[C@H]1/C=C/O[C@@]2(C)Oc3c(C)c(O)c4c(O)c(c(/C=N/N5CCN(C)CC5)c(O)c4c3C2=O)NC(=O)/C(C)=C\C=C\[C@H](C)[C@H](O)[C@@H](C)[C@@H](O)[C@@H](C)[C@H](OC(C)=O)[C@@H]1C [Rifampicin, 3-(4-methylpiperazinyliminomethyl)rifamycin SV]
Ameliorating effect on disturbance of memory (FIG. 1) (APP OSK mouse; Example 2: nasal, 0.05 mg/day): reached to the same level as in wild-type mouse
Ameliorating effect on disturbance of memory compared with oral administration (Comparative Example 1, […]) (APP OSK mouse; Example 2: nasal, dosage one-fifth (0.05 mg/day)): higher than the case of oral administration
Amelioration of disturbance of memory (FIG. 1) (APP OSK mouse; any of oral, nasal and subcutaneous administration, APP OSK mice): amelioration of disturbance of memory of APP OSK mouse was confirmed
Elevation of AST in comparison with CMC-administered APP OSK mouse ([1]; Example 2: nasal, 0.05 mg/day): Slight elevation
Change of ALT ([1]; any administration method (oral, nasal, subcutaneous)): no significant change was observed
Effect of reducing Aβ oligomers in comparison for the same dosage (FIG. 3) (Aβ oligomers; Example 1: nasal, […], versus oral and subcutaneous […]): highest
Quantification of Aβ oligomers (FIG. 3) (Aβ oligomers; any of oral (Comparative Example 1), nasal (Example 1, Example 2), subcutaneous (Reference Example 3)): reduced to at least the same level as that in wild-type mouse
Formation of oligomers of Aβ (Aβ): suppresses formation of oligomers
Formation of oligomers of tau (tau): suppresses formation of oligomers
Formation of oligomers of α synuclein (α synuclein): suppresses formation of oligomers
Cognitive function of mouse (AD model mouse): recovery of the cognitive function
Cognitive function of mouse (FTD model mouse): recovery of the cognitive function
